Laboratory results from ChEMBL document CHEMBL3507680, “University of Dundee, Gates Library screen for HepG2 cell viability”.

assay: Human HepG2 cell viability assay in 384 well format; type: toxicity, cell-based; design: dose 125 nL, time 70.5 hour; cytotoxicity at 70.5 h: concentration not given beside the values; details: HepG2 cells, read-out: Inhibition

SMILES	cytotoxicity at 70.5 h [%]
Cc1ccc(CNC2(Cc3cc(-c4ccc(F)cc4)on3)COC2)o1	-2.05
CCN(Cc1cccc(C)c1)Cc1nc2c(cnn2C)c(=O)[nH]1	-2.57
CCC(=O)NCC(CC)Oc1cccc(F)c1 (stereo not drawn)	-3.64
CCn1ccnc1CN1CCCC1c1noc(C2CC2)n1 (stereo not drawn)	-2.39
CCOc1ccc(Cl)c(C(=O)NCCC(=O)Nc2ccccn2)n1	-6.63
CCN1CCN(c2nc(O)cc(Cc3ccccc3F)n2)CC1	-0.665
CC(C)C[C@@H](N)C(=O)N(C)Cc1csc(C(C)C)n1	2.05
O=C(COc1ccccc1)NCCNC(=O)c1scnc1Cl	-11.8
CCCN(CC)c1cc(C2CCNCC2)nc(C)n1	26.5
CCOc1nnc(CN(CC)CC(=O)NC(C)C)s1	-1.99
CN(C)CCN1CCO[C@@H]2CCN(C(=O)c3cccn3C)CC[C@H]21	10.8
CN(C1CCCCC1)S(=O)(=O)N1CCN(Cc2ccco2)CC1	-7.86
Cc1noc([C@H]2C[C@@H]3CCN(CC4CCOCC4)C[C@H]3O2)n1	-1.09
O=C(O)CC(NC(=O)c1ccccc1OC(F)F)c1cccs1 (stereo not drawn)	2.5
Cc1cc(C)n(CC(=O)N2CCC(c3cc4cccnc4[nH]3)CC2)n1	29.7
Cc1cnc(C)c(N2C[C@H]3OC(=O)N(C4CCCC4)[C@H]3C2)n1	-6.45
COc1ccc(OC)c(CNCc2ccnc(N3CCOCC3)c2)c1	-4.43
O=S(=O)(c1cncc(F)c1)N1CCC2(CCOC2)C1 (stereo not drawn)	-14.3
Cc1nonc1-c1nc(C(C)C)nn1-c1ccc2c(c1)OCO2	-3.15
Cc1occc1C(=O)N1CCC2(CC1)NC(=O)CC2c1cnn(C)c1 (stereo not drawn)	-10.3
NCC1Cc2cc(-c3cnccn3)cc(Cl)c2O1 (stereo not drawn)	0.342
NC(=O)c1cnc(NCC(=O)NCc2ccco2)c(Cl)c1	-9.01
CC(Cn1cccn1)NC(=O)Cc1csc(C(C)C)n1 (stereo not drawn)	-10.5

SMILES	cytotoxicity at 70.5 h [%]
N#Cc1cccnc1N1CCCC(CO)(Cc2cccc(Cl)c2)C1 (stereo not drawn)	2.5
COc1ccc(CC2(CO)CCN(c3cc(N)ncn3)CC2)cc1	-6.39
Cc1cc(C)n(CNc2nonc2C(N)=O)n1	36
COc1ccc(N2CCCN(CC(=O)N3CCNC(=O)C3)CC2)cc1	-8.51
CCC(=O)NC1CCN(c2cccc(OC(F)(F)F)c2)C1=O (stereo not drawn)	-2.63
COc1ccc(-c2n[nH]c(C)c2CC(=O)NCC2CCOCC2)cc1	-10.5
CC(CNc1cncc(-n2cccn2)n1)N(C)c1ccccc1 (stereo not drawn)	1.39
CC(C)N1CCCC2(CCN(C(=O)CCCn3cncn3)C2)C1=O (stereo not drawn)	-4.98
Cc1ccc(NC(=O)C2CSCN2C(=O)c2cnsn2)c(C)c1 (stereo not drawn)	-6.91
Cc1cnn(CCC(=O)N2CCOC(c3nc(C(C)(C)C)n[nH]3)C2)c1 (stereo not drawn)	15.8
Cc1nn(C)c(N2CCOCC2)c1CNC(C)c1cccnc1 (stereo not drawn)	-8.78
Cc1ccncc1NC(=O)C1CSc2ncc(C)c(=O)n2C1 (stereo not drawn)	18.9
CCS(=O)(=O)N1CC(c2nc(-c3ccncc3)no2)C1	-2.55
CC(C)c1n[nH]c(C2CN(C(=O)c3cc(C(N)=O)cs3)CCO2)n1 (stereo not drawn)	0.559
Cc1cccc(CN2CCCC2c2cncc(Nc3nncs3)n2)c1 (stereo not drawn)	2.33
Cn1ncc2c(=O)[nH]c(CN3CCC(Cc4ccccc4)CC3)nc21	34.8
COc1cc(N2C[C@H]3CN(Cc4ccccn4)C[C@H]3C2)ncn1	-4.15
CN(C)S(=O)(=O)N1CCN(C(=O)c2cc(-c3ccc(Br)s3)n[nH]2)CC1	-10.1
CS(=O)(=O)c1ccc(C(O)CN2CCC(c3ccn[nH]3)CC2)cc1 (stereo not drawn)	-17.4
COc1cc(CNC(=O)Nc2nnc(C3CC3)s2)ccc1O	-8.51
COCC1COCCC12CCN(C(=O)CCOc1ccccc1)CC2 (stereo not drawn)	-2.28
Cc1ccc(-c2nc(CN3CCOC(CN(C)C)C3)co2)cc1 (stereo not drawn)	-5.51
CCSc1ccc(C(=O)N2CC[C@](O)(CC)[C@H](O)C2)s1	22.5

SMILES	cytotoxicity at 70.5 h [%]
Cc1ccc(NC(=O)Cn2ncc(SCC(N)=O)c(Cl)c2=O)c(F)c1	-17.2
CC(C)Cc1cc(C(=O)O)nc2[nH]c(=O)[nH]c(=O)c12	-14.3
COc1cc(-c2n[nH]c(CO)n2)cc(OC)c1OC	29.6
CCOc1ncnc2c1CCN(C(=O)CN(C)C)CC2	0.621
CC(=O)N1CCCN(C(=O)NCC2(c3cccs3)CCCC2)CC1	-4.55
CN(Cc1ncnn1C)C1CCN(c2sccc2C#N)C1=O (stereo not drawn)	-1.7
Cc1nc(C)n(CC2CCCN(Cc3cccc(C#N)c3)C2)n1 (stereo not drawn)	-15.1
O=C(CN1CCN(CCO)CC1)NCc1ccc(Cl)s1	-1.03
CCCc1nc(N(C)Cc2cnc(NC)nc2)c2cnn(C)c2n1	8.94
O=C1CCC2(CCN(Cc3nccs3)CC2)CN1CCCO	-6.67
c1ccc(-c2ncc(CNC3CCc4ncnn4C3)cn2)cc1 (stereo not drawn)	-11
Cc1nnc2n1CCN(Cc1csc(-c3cnn(C)c3)n1)C2	-3.97
CCO[C@@H]1CCN(C(=O)c2ccnnc2)[C@@H]1Cc1cnn(C)c1	3.33
Cc1ccc(F)c(S(=O)(=O)NCc2[nH]ncc2Br)c1	-10
O=C(c1cccs1)N1CCc2c(nc(N3CCCCC3)[nH]c2=O)C1	-0.672
Cc1c(NCc2ccccc2C#N)cccc1S(=O)(=O)NC1CC1	5.79
CN(CCc1ccc2c(c1)CCO2)C1CCS(=O)(=O)CC1	16.1
Cc1ccc(C)c(Oc2ccc(CNC(=O)C3CCS(=O)(=O)C3)cn2)c1 (stereo not drawn)	-10.1
CC(C)C(=O)N1CCCC(c2cc(C(F)F)n3ncnc3n2)C1 (stereo not drawn)	23.9
Cn1cc(CN2CCCCC2c2ccc(-c3cnn(C)c3)nc2)cn1 (stereo not drawn)	-8.29
CCCN1CCN(S(=O)(=O)c2ccccc2OC)[C@H]2CS(=O)(=O)C[C@H]21	-16.5
COc1ccccc1CC(=O)N1CC[C@@]2(CCCO2)[C@@H](OC)C1	25.6
CN(C)CCN(C)C1CCN(C(C(=O)O)c2ccc(F)c(Cl)c2)CC1 (stereo not drawn)	5.36

SMILES	cytotoxicity at 70.5 h [%]
CCC[C@H]1CN(CCOC)C[C@@H]1NC(=O)Cn1cc(C)cn1	4.5
Cn1nccc1-c1nc2c(cc1C(=O)O)CCN(C(=O)C1CC1)CC2	-2.87
O[C@H]1[C@H](n2cc(-c3cccnc3)nn2)c2ccccc2C12CCNCC2	0.63
CN1CCN(C(=O)c2cc3sccc3n2Cc2ccccc2)CC1	-6.85
COc1ccccc1CCNC(=O)NC(C)COCC(F)(F)F (stereo not drawn)	-5.34
Cn1cnnc1C1CCN(C(=O)CCCOc2ccccc2)CC1	-0.661
CCS(=O)(=O)N1C[C@@H](OCc2ccccn2)[C@@H]2OCCC[C@@H]21	-9.16
CC1CN(C)c2ccccc2CN1C(=O)c1ccc[nH]1 (stereo not drawn)	0.885
Cc1noc(C)c1CN(C)C(=O)NC(C)c1cccs1 (stereo not drawn)	7.59
COc1cccc(OC)c1-c1ccnc2cc(CC(=O)NC3CC3)nn12	-11
Cc1noc(Cl)c1CCC(=O)N1CCC(CC(N)=O)CC1	-4.77
Cc1cc(N2CCC(Cc3cccnc3)C2)ncn1 (stereo not drawn)	-3.49
Cc1ccn2cc(C(=O)N3CCCC(Cn4cc(CO)nn4)C3)nc2c1 (stereo not drawn)	17.5
CC(C)c1nn(C)c(N(C)C)c1CNCCC(=O)NC1CCCCC1	37.6
CCCc1nnc(NC2CCN(C3CCSCC3)CC2)o1	-13.9
COc1cccc(NC(=O)c2nc3ccccc3n(C)c2=O)c1	-6.23
CCN1CCc2c(c(COC)nn2C)C1	-10.5
Cc1cc(C)n2ncc(CN3C[C@@H](O)[C@H](Oc4ccccc4)C3)c2n1	-13.5
Cc1cc(C(N)=O)nc(C2(C)CCCN2Cc2cnn(C)c2C)n1 (stereo not drawn)	-0.0176
CC1c2ncc(CN3CCN(C)CC3)n2CCN1CC1CC1 (stereo not drawn)	-11.9
COCCC(=O)N1C[C@H](C(C)C)[C@@H](N(C)C)C1	-14.3
CCNC(=O)NCc1ccc(CN2CCCC(C)C2)cc1 (stereo not drawn)	-0.573
CCC(CO)N(Cc1ccc(F)cc1)Cc1c(C)nn(C)c1Cl (stereo not drawn)	-3.37

SMILES	cytotoxicity at 70.5 h [%]
Cc1ccc(CN(C(=O)C(C)S(C)(=O)=O)C2CC2)cc1C (stereo not drawn)	-4.96
CC(C)(C)CN[C@@H]1CO[C@H](CNC(=O)c2cccs2)[C@H]1O	4.02
Cn1cc(-c2cc(-c3cnn(C)c3)n(CC(=O)NC3CC3)n2)cn1	-20.4
CN(C)CCn1c([C@@H]2CCCO2)cc2cccnc21	2.42
Cc1cccc2nc(C(=O)N3CCC(Nc4cccnn4)CC3)cn12	-21.3
CCOc1ccc(C2CCCN2C(=O)NCCn2ccnc2)cc1 (stereo not drawn)	-1.63
Cc1cnn(C2CN(Cc3nc(-c4ccccc4C)no3)C2)c1	11
COc1nn(C)cc1C(=O)NCC(=O)NCc1cccnc1	-2.92
CC(C)(C)C(=O)NCCn1ccc(-c2ccncc2)n1	-4.99
CNc1cc(C2CN(C(=O)c3ccn(C)n3)CCO2)nc(C)n1 (stereo not drawn)	26.5
COCCC(=O)N1C[C@@H]2COC[C@]2(COCc2cccnc2)C1	-13.6
CCc1c(C)sc2ncnc(N3CC[C@@H](N4CCOCC4)[C@H](O)C3)c12	-4.12
Cc1ccc2c(n1)N(CCN(C)C)CCN(C(=O)c1cccs1)C2	-5.81
CSc1nccn1-c1cccc(C(=O)NCCC(=O)NC(C)C)c1	-3.09
Cc1cc(C(=O)N2CCCN(Cc3cnn(C(C)C)c3)CC2)no1	-3
CCN(CC)C(=O)[C@@H]1C[C@H](n2cc(-c3ccccn3)nn2)CN1	12
CS(=O)(=O)c1nnc(NC(=O)CCc2cc(F)ccc2F)[nH]1	-14.9
Cc1cc(C)n(C2CN(c3ncnc4[nH]ccc34)C2)n1	-3.24
CCCNC(=O)CC1OCCc2ccsc21 (stereo not drawn)	-6.25
CCCS(=O)(=O)N1CCN(c2cc(-n3cnc(C)c3C)nc(C)n2)CC1	-4.37
CSC(C)(C)CNC(=O)NC1CCN(CC2CC2)C1 (stereo not drawn)	15.5
